Assay results as given in US10165777B2, “Substituted pyrazolylpyrazole derivative and use of same as herbicide” (KYOYU AGRI CO., LTD., priority 2015, dated 2019).

Experiments:
Assay type in all cases: in vivo
[1] = test system: Digitaria ciliaris; assay: Weed foliar treatment test (Test 4, 4.0 to 5.0 leaf stage); settings: 10 g a.i./10 a; foliar spray at 4.0 to 5.0 leaf stage of Digitaria ciliaris (plant height 10 cm to 15 cm); 20 days
Method: (§1) Field soil was filled into a 1/4500 are pot followed by seeding with Digitaria ciliaris and Galinsoga parviflora, covering with soil and cultivating in a glass greenhouse at an average atmospheric temperature of 25° C.
(§2) Wettable powders of Target Compound (I) shown in Table 1 prepared in compliance with the preparation examples were diluted with water to the prescribed amount of chemical and uniformly sprayed onto the weeds using 100 liters of sprayed water per 10 are when Digitaria ciliaris had grown to the 4.0 to 5.0 leaf stage (plant height: 10 cm to 15 cm).
(§3) After treating for 20 days in a glass greenhouse at an average atmospheric temperature of 25° C., the herbicidal efficacy thereof was investigated.
(§4) Evaluation of herbicidal efficacy was carried out in the same manner as the above-mentioned Test Example 1.

[2] = test system: Galinsoga parviflora; assay: as above; settings: 10 g a.i./10 a; foliar spray at 4.0 to 5.0 leaf stage of Digitaria ciliaris; 20 days
Method: as §1, §2, §3, §4

[3] = test system: Digitaria ciliaris; assay: Weed foliar treatment test (Test 3, 1.0 to 2.0 leaf stage); settings: foliar spray at 1.0 to 2.0 leaf stage of Digitaria ciliaris, 3 weeks
Method: (§5) Soil was filled into a 1/6000 are pot followed by seeding with Digitaria ciliaris, Chenopodium album and Amaranthus retroflexus, covering with soil, and cultivating in a glass greenhouse at an average atmospheric temperature of 25° C. Wettable powders of Target Compound (I) shown in Table 1 prepared in compliance with the preparation examples were diluted with water to the prescribed amount of chemical and uniformly sprayed onto the weeds using 150 liters of sprayed water per 10 are when Digitaria ciliaris had grown to the 1.0 to 2.0 leaf stage. After treating for 3 weeks in a glass greenhouse at an average atmospheric temperature of 25° C., the herbicidal efficacy thereof was investigated. Evaluation of herbicidal efficacy was carried out in the same manner as the above-mentioned Test Example 1.

[4] = test system: Chenopodium album; assay: as above; settings: foliar spray at 1.0 to 2.0 leaf stage of Digitaria ciliaris, 3 weeks
Method: as §5

[5] = test system: Amaranthus retroflexus; assay: as above; settings: foliar spray at 1.0 to 2.0 leaf stage of Digitaria ciliaris, 3 weeks
Method: as §5

With `N#Cc1cnn(-c2nn3c(c2Cl)CCCC3)c1N=C1CCCC1` [Compound 8] the “herbicidal efficacy, Digitaria ciliaris” value [1] was 10 (100%) and the “herbicidal efficacy, Galinsoga parviflora” value [2] was 10 (100%).
`CCOC=Nc1c(C#N)cnn1-c1nn2c(c1Cl)CCCC2` [Compound 34] was tested, and the “herbicidal efficacy, Digitaria ciliaris” value [1] was 9 (90% to less than 100%) and the “herbicidal efficacy, Galinsoga parviflora” value [2] was 10 (100%).
`CC(=Nc1c(C#N)cnn1-c1nn2c(c1Cl)CCCC2)c1ccc[nH]1` [Compound 29] was tested, and the “herbicidal efficacy, Digitaria ciliaris” value ([3]; 5 g a.i./10 a) was 9 (90% to less than 100%), the “herbicidal efficacy, Digitaria ciliaris” value ([3]; 10 g a.i./10 a) was 10 (100%) and the “herbicidal efficacy, Chenopodium album” value ([4]; 5 g a.i./10 a) was 10 (100%). For the same molecule, the “herbicidal efficacy, Chenopodium album” value ([4]; 10 g a.i./10 a) was 10 (100%), the “herbicidal efficacy, Amaranthus retroflexus” value ([5]; 5 g a.i./10 a) was 9 (90% to less than 100%) and the “herbicidal efficacy, Amaranthus retroflexus” value ([5]; 10 g a.i./10 a) was 10 (100%). For the same molecule, the “herbicidal efficacy, Digitaria ciliaris” value [1] was 10 (100%) and the “herbicidal efficacy, Galinsoga parviflora” value [2] was 10 (100%).
`CC(=Nc1c(C#N)cnn1-c1nn2c(c1Cl)CCCC2)c1cnccn1` [Compound 27] was tested, and the “herbicidal efficacy, Digitaria ciliaris” value [1] was 10 (100%) and the “herbicidal efficacy, Galinsoga parviflora” value [2] was 10 (100%).
`N#Cc1cnn(-c2nn3c(c2Cl)CCCC3)c1N=Cc1ccccn1` [Compound 21] was tested, and the “herbicidal efficacy, Digitaria ciliaris” value [1] was 10 (100%) and the “herbicidal efficacy, Galinsoga parviflora” value [2] was 10 (100%).
With `N#Cc1cnn(-c2nn3c(c2Cl)CCCC3)c1N=Cc1ccc(C(F)(F)F)cc1` [Compound 19] the “herbicidal efficacy, Digitaria ciliaris” value [1] was 10 (100%) and the “herbicidal efficacy, Galinsoga parviflora” value [2] was 10 (100%).
`Cc1ccc(C=Nc2c(C#N)cnn2-c2nn3c(c2Cl)CCCC3)cc1` [Compound 18] was tested, and the “herbicidal efficacy, Digitaria ciliaris” value [1] was 10 (100%) and the “herbicidal efficacy, Galinsoga parviflora” value [2] was 10 (100%).
`N#Cc1cnn(-c2nn3c(c2Cl)CCCC3)c1N=Cc1ccc(Cl)cc1` [Compound 20] was tested, and the “herbicidal efficacy, Digitaria ciliaris” value [1] was 10 (100%) and the “herbicidal efficacy, Galinsoga parviflora” value [2] was 10 (100%).
`N#Cc1cnn(-c2nn3c(c2Cl)CCCC3)c1N=Cc1cccc(Cl)c1` [Compound 17] was tested, and the “herbicidal efficacy, Digitaria ciliaris” value [1] was 10 (100%) and the “herbicidal efficacy, Galinsoga parviflora” value [2] was 10 (100%).
`CC(=Nc1c(C#N)cnn1-c1nn2c(c1Cl)CCCC2)c1ccccn1` [Compound 24] was tested, and the “herbicidal efficacy, Digitaria ciliaris” value [1] was 10 (100%) and the “herbicidal efficacy, Galinsoga parviflora” value [2] was 10 (100%).
